Data on 12 compounds can be found in ChEMBL document CHEMBL1134017, “Heterocycle-based MMP inhibitors with P2' substituents” (Bioorg Med Chem Lett, 2001).

Some targets named below: Stromelysin-1 (Homo sapiens, UniProt P08254); Neutrophil collagenase (Homo sapiens, UniProt P22894); Collagenase 3 (Rattus norvegicus, UniProt P23097).
The target of assay [1] is T1, Matrilysin (Homo sapiens, UniProt P09237).
T1 sequence (P09237 whole entry): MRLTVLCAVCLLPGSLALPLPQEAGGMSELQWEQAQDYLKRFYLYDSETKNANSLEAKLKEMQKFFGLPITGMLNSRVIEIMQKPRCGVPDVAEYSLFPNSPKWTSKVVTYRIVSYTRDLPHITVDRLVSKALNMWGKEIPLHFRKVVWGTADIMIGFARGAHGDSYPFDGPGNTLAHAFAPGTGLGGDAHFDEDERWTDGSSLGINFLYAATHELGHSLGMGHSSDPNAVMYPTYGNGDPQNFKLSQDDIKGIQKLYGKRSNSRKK
Description: Inhibition of Matrix metalloprotease-7

In assay [2] the target is Matrix metalloproteinase-9 (Homo sapiens, UniProt P14780).
Description: Inhibition of Matrix metalloprotease-9
In another assay the target is T2, Interstitial collagenase (Homo sapiens, UniProt P03956).
T2 sequence (P03956 whole entry): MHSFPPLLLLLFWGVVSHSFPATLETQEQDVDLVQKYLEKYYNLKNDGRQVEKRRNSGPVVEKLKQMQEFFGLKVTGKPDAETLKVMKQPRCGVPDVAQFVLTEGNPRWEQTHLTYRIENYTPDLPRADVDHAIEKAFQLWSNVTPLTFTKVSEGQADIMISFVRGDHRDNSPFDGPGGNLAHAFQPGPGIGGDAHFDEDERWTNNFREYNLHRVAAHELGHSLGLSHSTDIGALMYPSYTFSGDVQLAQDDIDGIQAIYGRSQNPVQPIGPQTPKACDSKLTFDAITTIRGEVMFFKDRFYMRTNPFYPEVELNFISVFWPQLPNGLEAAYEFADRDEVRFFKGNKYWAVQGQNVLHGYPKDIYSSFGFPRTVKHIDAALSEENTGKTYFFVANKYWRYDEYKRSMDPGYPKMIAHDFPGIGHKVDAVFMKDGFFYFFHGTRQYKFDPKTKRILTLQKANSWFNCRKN

The target of assay [3] is T1, Matrilysin. This is another data set of the same source.
Description: Inhibition of Matrix metalloprotease-7

Stromelysin-1, sequence (P08254 whole entry): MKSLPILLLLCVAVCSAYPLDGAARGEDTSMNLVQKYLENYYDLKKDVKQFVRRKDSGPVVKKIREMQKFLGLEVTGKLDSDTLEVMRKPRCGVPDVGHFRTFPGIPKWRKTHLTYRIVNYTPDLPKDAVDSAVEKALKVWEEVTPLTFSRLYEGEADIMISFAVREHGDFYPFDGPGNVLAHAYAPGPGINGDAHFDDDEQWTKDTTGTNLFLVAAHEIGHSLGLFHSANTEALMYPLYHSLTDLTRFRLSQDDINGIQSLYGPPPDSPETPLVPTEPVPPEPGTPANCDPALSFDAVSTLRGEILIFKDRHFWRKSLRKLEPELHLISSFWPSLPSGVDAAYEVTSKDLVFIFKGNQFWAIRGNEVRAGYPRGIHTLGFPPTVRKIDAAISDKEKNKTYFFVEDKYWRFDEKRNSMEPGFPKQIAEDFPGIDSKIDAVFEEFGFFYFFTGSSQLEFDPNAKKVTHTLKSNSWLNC
Matrix metalloproteinase-9, sequence (P14780 whole entry): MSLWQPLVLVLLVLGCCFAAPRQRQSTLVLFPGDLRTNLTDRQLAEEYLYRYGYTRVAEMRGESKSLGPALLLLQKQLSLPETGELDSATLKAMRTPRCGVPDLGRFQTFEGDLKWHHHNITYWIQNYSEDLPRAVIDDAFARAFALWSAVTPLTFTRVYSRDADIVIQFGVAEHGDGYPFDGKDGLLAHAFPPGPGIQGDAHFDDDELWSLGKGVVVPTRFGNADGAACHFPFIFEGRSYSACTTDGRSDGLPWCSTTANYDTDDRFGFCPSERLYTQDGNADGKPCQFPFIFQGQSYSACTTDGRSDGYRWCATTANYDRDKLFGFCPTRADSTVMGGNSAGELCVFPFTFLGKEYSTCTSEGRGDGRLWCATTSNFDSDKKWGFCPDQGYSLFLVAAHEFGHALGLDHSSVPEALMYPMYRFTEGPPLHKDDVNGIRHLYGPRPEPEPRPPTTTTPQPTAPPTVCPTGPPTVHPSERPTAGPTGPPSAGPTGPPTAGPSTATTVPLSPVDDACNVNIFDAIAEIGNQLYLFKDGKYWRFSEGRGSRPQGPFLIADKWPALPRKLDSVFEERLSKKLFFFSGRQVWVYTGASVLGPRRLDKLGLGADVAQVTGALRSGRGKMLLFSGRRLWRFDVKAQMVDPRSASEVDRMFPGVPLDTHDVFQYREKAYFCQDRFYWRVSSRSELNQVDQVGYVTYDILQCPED
Neutrophil collagenase, sequence (P22894 whole entry): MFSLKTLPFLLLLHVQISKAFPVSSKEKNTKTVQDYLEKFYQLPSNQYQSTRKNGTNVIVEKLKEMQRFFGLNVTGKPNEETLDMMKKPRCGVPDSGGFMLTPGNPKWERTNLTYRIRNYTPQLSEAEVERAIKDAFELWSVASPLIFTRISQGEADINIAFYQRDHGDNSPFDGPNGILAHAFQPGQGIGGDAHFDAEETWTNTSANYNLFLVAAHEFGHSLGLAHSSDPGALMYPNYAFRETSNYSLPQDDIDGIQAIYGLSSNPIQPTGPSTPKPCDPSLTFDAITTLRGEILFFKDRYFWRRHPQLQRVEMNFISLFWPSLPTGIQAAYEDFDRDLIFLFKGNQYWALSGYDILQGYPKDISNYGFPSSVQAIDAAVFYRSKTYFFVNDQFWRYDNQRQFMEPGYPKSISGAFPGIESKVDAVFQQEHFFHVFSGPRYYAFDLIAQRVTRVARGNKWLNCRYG
Description for Collagenase 3: Inhibition of Matrix metalloprotease-13
Description for Interstitial collagenase: Inhibition of human Matrix metalloprotease-1
Description for Neutrophil collagenase: Inhibition of Matrix metalloprotease-8
Description for Stromelysin-1: Inhibition of Matrix metalloprotease-3

In the case of `COCCN1CN(S(=O)(=O)c2ccc(OC)cc2)[C@@H](C(=O)NO)CC1=O`, the IC50 on Stromelysin-1 was determined as 180 nM; at Neutrophil collagenase, 102 nM; on Matrilysin [1] it was 10000 nM; in assay [2], 52.5 nM; against Interstitial collagenase, 696 nM.
Consider `COc1ccc(S(=O)(=O)N2CCN(C(=O)OCc3ccccc3)CC[C@@H]2C(=O)NO)cc1`, for which the IC50 was 14 nM against Stromelysin-1; 3.3 nM at Neutrophil collagenase; 737 nM against Matrilysin [3]; 1.8 nM in assay [2]; 97 nM at Interstitial collagenase; 2.1 nM at Collagenase 3.
On to `COc1ccc(S(=O)(=O)N2CCN(S(=O)(=O)c3cn(C)cn3)CC[C@@H]2C(=O)NO)cc1`, for which the IC50 at Stromelysin-1 is 39.2 nM; on Neutrophil collagenase it was 6.6 nM; against Matrilysin [3], 2780 nM; in assay [2], 5.5 nM; against Interstitial collagenase, 346 nM; on Collagenase 3, 2.4 nM.
As for `COc1ccc(S(=O)(=O)N2CN(C(C)C)C(=O)C[C@@H]2C(=O)NO)cc1`, the half-maximal inhibitory concentration (IC50) on Neutrophil collagenase came to 6.3 nM; against Matrilysin [1] it was 3460 nM; in assay [2], 4.2 nM; at Interstitial collagenase it was 643 nM; at Collagenase 3, 2.9 nM.
As for `COc1ccc(S(=O)(=O)N2CN(C3CCCCC3)C(=O)C[C@@H]2C(=O)NO)cc1`, the IC50 worked out at 2.8 nM against Neutrophil collagenase; 776 nM against Matrilysin [1]; 3.3 nM in assay [2]; 465 nM at Interstitial collagenase; 0.75 nM against Collagenase 3.
`COc1ccc(S(=O)(=O)N2CCN(Cc3ccccc3)C(=O)C[C@@H]2C(=O)NO)cc1`: the IC50 turned out to be 3.3 nM on Stromelysin-1; 1.5 nM against Neutrophil collagenase; 88 nM on Matrilysin [1]; 1 nM in assay [2]; 13.6 nM against Interstitial collagenase.
Turning to `COc1ccc(S(=O)(=O)N2CC[C@H](C(=O)NO)N(S(=O)(=O)c3ccc(OC)cc3)CC2)cc1`, the IC50 at Stromelysin-1 was determined as 6.3 nM; against Neutrophil collagenase, 1.8 nM; on Matrilysin [3], 905 nM; on Interstitial collagenase, 28.9 nM; against Collagenase 3, 0.84 nM.
On to `COc1ccc(S(=O)(=O)N2C[C@@H]3CCCN3C(=O)C[C@@H]2C(=O)NO)cc1`, for which the IC50 at Stromelysin-1 turned out to be 3.4 nM; on Interstitial collagenase it was 1.2 nM; against Collagenase 3 it was 2 nM.
On to `COc1ccc(S(=O)(=O)N2CN(C)C(=O)C[C@@H]2C(=O)NO)cc1`, for which the IC50 is 47.3 nM on Neutrophil collagenase; more than 10000 nM at Matrilysin [1]; 24.1 nM in assay [2]; 2200 nM on Interstitial collagenase; 7.9 nM against Collagenase 3.
For `COc1ccc(S(=O)(=O)N2CN(C(C)(C)C)C(=O)C[C@@H]2C(=O)NO)cc1` the same measures were 1.5 nM, 909 nM, 1.1 nM, 320 nM and 0.34 nM.
`COc1ccc(S(=O)(=O)N2CN(Cc3ccccc3)C(=O)C[C@@H]2C(=O)NO)cc1`: the IC50 at Neutrophil collagenase was 6.4 nM; on Matrilysin [1], more than 10000 nM; in assay [2], 6.8 nM; on Interstitial collagenase it was 22.2 nM.
On to `COc1ccc(S(=O)(=O)N2CCN(C(C)C)C(=O)C[C@@H]2C(=O)NO)cc1`, for which the IC50 against Stromelysin-1 was 6.5 nM; on Neutrophil collagenase, 3.7 nM; against Matrilysin [1] it was 369 nM; in assay [2], 4.1 nM; on Interstitial collagenase, 22 nM; against Collagenase 3, 1.9 nM.

For orientation: IC50 means the concentration that gives 50% inhibition. A higher IC50 goes with lower potency.
